Assay results published in patent publication US6140362A, “Method for inhibiting the growth of mammalian cells” (Rohm and Haas Company, priority 1997, dated 2000).
Read-outs that look alike come from different tables or passages of the source.

Columns and labels:
[1] = test system: mouse lymphoma cell line L5178Y; assay: Growth inhibition of mouse lymphoma cells (L5178Y), 48 h; assay type: cell-based; details: for inhibition at 2 µM: 2 micromolar; for inhibition at 4 µM: 4 micromolar; for inhibition at 10 µM: read-out: Inhibition of growth; for inhibition at 20 µM: 20 micromolar
Protocol: Effects of compounds on growth of mouse lymphoma cell line L5178Y, were determined as follows. Cells were grown in Fischer's medium (obtained from Life Technologies, Inc., Gaithersburg, Md.) containing 0.24 grams per liter (g/l) sodium pyruvate, 1.12 g/l surfactant (Pluronic F-68, from BASF Corporation, Parsippany, N.J.), and 10% by volume (10% v/v) heat-inactivated horse serum (obtained from Life Technologies, Inc) at 37° C. To 30 ml aliquots of cell suspension (2×10^4 cells per milliliter (mL)) in exponential growth phase were added test compounds dissolved in dimethylsulfoxide (DMSO) at various concentrations such that the final DMSO concentration in the mixtures was 0.25%. Tubes were gassed with 5% CO2 then incubated on a roller drum apparatus. After 48 hours the cells were treated with 0.1% trypsin (Life Technologies, Inc.,) for 10 minutes and counted in a Coulter Counter equipped with a 140 micrometer (μM) aperture. Percent inhibition of growth was calculated by comparing the number of cells in assays containing test compound with the number of cells in controls lacking the test compound.

[2] = test system: Leukemia (SR); assay: Growth inhibition of human tumor cell lines: Leukemia (SR); assay type: cell-based; details: cell line A = Leukemia (SR), NCI testing
Protocol: (§1) Selected compounds were evaluated by the National Cancer Institute, Bethesda, Md. against 60 human tumor cell lines according to procedures described in Principles and Practices of Oncology, volume 3, issue number 10, pp. 1-12. Results of the testing against representative cell lines including the test compound number, and the GI50 values (μM) are set forth in Table 3. The GI50 value is the concentration required to inhibit cell growth by 50% as compared to untreated control cultures.

[3] = test system: Nonsmall cell lung cancer (NCIH522); assay: Growth inhibition of human tumor cell lines: Nonsmall cell lung cancer (NCIH522); assay type: cell-based; details: NCI-H522, cell line B = Nonsmall cell lung cancer (NCIH522), NCI testing
Protocol: as §1

[4] = test system: Small cell lung cancer (DMS 114); assay: Growth inhibition of human tumor cell lines: Small cell lung cancer (DMS 114); assay type: cell-based; details: cell line C = Small cell lung cancer (DMS 114), NCI testing
Protocol: as §1

[5] = test system: Colon cancer (HCT116); assay: Growth inhibition of human tumor cell lines: Colon cancer (HCT116); assay type: cell-based; details: HCT-116, cell line D = Colon cancer (HCT116), NCI testing
Protocol: as §1

[6] = test system: CNS cancer (SF539); assay: Growth inhibition of human tumor cell lines: CNS cancer (SF539); assay type: cell-based; details: SF-539, cell line E = CNS cancer (SF539), NCI testing
Protocol: as §1

[7] = test system: Melanoma (SKMEL-2); assay: Growth inhibition of human tumor cell lines: Melanoma (SKMEL-2); assay type: cell-based; details: SK-MEL-2, cell line F = Melanoma (SKMEL-2), NCI testing
Protocol: as §1

[8] = test system: Ovarian cancer (OVCAR8); assay: Growth inhibition of human tumor cell lines: Ovarian cancer (OVCAR8); assay type: cell-based; details: OVCAR-8, cell line G = Ovarian cancer (OVCAR8), NCI testing
Protocol: as §1

[9] = test system: Renal cancer (CAKI1); assay: Growth inhibition of human tumor cell lines: Renal cancer (CAKI1); assay type: cell-based; details: CAKI-1, cell line H = Renal cancer (CAKI1), NCI testing
Protocol: as §1

[10] = test system: tubulin; assay: Inhibition of microtubule assembly; assay type: biochemical, calf; details: preincubated 1 h at 37° C.
Protocol: Compounds were evaluated for their ability to inhibit tubulin assembly into microtubules by comparing the extent of cold-reversible assembly in the presence of each test compound with controls lacking the test compound. Tubulin was isolated from calf brain tissue by two cycles of assembly/disassembly as described by Vallee, R. B. in Methods in Enzymology, vol. 134, pp. 89-104. Assay mixtures contained 1 mg/ml of purified tubulin in 1 M sodium glutamate, pH 6.6, 1 millimolar (mM) MgCl2, and the test compound, which was added as a solution in DMSO. The final concentration of DMSO in each assay was 2% (v/v). Assay mixtures were preincubated at 37° C. for 1 h, then chilled on ice for 5 min. Microtubule assembly was initiated by addition of guanosine triphosphate (0.1 mM), and incubation at 37° C. Assembly was followed turbidimetrically at 350 nm for 20 minutes (min) using a temperature-controlled cell in a Cary 2200 spectrophotometer. Since microtubules undergo depolymerization at 0° C., assembly was confirmed by measuring the reduction in turbidity following incubation for 30 min at 0° C. The difference in absorbance before and after incubation for 30 min at 0° C. (ΔA350) represents the extent of microtubule assembly. Inhibition of assembly was calculated by subtracting the (ΔA350) values for treatments with test compounds from the (ΔA350) for controls without test compound, and expressing this difference as a percentage of the (ΔA350) value for the control. Results including test compound number, test compound concentration in micromoles per liter (μM) and percent inhibition are set forth in Table 11.

`CCC(C)(NC(=O)c1ccc(NC(=O)OC)cc1)C(=O)CCl` (centres unmarked) [Compound 1] was tested, and the inhibition at 2 µM ([1]; 48 hours) was 92%.

For `CCC(C)(NC(=O)c1cc(Cl)cc(C#N)c1)C(=O)CCl` (centres unmarked) [Compound 3], the inhibition at 2 µM ([1]; 48 hours) was 94%.

With `CCC(C)(NC(=O)c1cc(Cl)cc(C=NOC)c1)C(=O)CCl` (centres unmarked) [Compound 4] the inhibition at 2 µM ([1]; 48 hours) was 95%, the GI50 [2] was 0.59 µM and the GI50 [3] was 2.14 µM. The GI50 [4] was 1.54 µM, the GI50 [5] was 2.58 µM and the GI50 [6] was 2.31 µM. For the same molecule, the GI50 [7] was 3.24 µM, the GI50 [8] was 2.62 µM and the GI50 [9] was 3.07 µM. For the same molecule, the “Percent inhibition of microtubule assembly” value (“Percent inhibition” for short) ([10]; 50 μM) was 89.8%.

With `CCC(C)(NC(=O)c1cc(C)cc(Br)c1)C(=O)CCl` (centres unmarked) [Compound 5] the inhibition at 2 µM ([1]; 48 hours) was 91% and the “Percent inhibition” value ([10]; 50 μM) was 88.7%.

Molecule `CCCC(NC(=O)c1cc(Cl)cc(Cl)c1)C(=O)C(Br)Br` (centres unmarked) [Compound 6] has an inhibition at 2 µM ([1]; 48 hours) of 75%.

`CCC(C)(NC(=O)c1cccc(Br)c1)C(=O)C(Br)Br` (centres unmarked) [Compound 7] gave an inhibition at 2 µM ([1]; 48 hours) of 92%, a GI50 [2] of 2.32 µM and a GI50 [3] of 1.08 µM. For the same molecule, the GI50 [4] was 1.83 µM, the GI50 [5] was 3.39 µM and the GI50 [6] was 2.29 µM. The GI50 [7] was 2.74 µM, the GI50 [8] was 3.01 µM and the GI50 [9] was 2.82 µM. The “Percent inhibition” value ([10]; 5 μM) was 97.0%.

`CC(C)C(C)(NC(=O)c1cc(Cl)cc(Cl)c1)C(=O)C(Br)Br` (centres unmarked) [Compound 8] showed an inhibition at 2 µM ([1]; 48 hours) of 83%.

`CC(C)CC(C)(NC(=O)c1cc(Cl)cc(Cl)c1)C(=O)C(Br)Br` (centres unmarked) [Compound 9] showed an inhibition at 2 µM ([1]; 48 hours) of 97%.

`CCCCCC(C)(NC(=O)c1cc(Cl)cc(Cl)c1)C(=O)C(Br)Br` (centres unmarked) [Compound 10] gave an inhibition at 2 µM ([1]; 48 hours) of 96%.

In the case of `CCCC(C)(NC(=O)c1cc(Cl)cc(Cl)c1)C(=O)C(Br)Br` (centres unmarked) [Compound 11], the inhibition at 2 µM ([1]; 48 hours) is reported as 88%.

`CCC(CC)(NC(=O)c1cc(Cl)cc(Cl)c1)C(=O)C(Br)Br` [Compound 12] gave an inhibition at 2 µM ([1]; 48 hours) of 85%.

Molecule `CCC(C)(NC(=O)c1cc(Cl)cc(Cl)c1)C(=O)C(Br)Br` (centres unmarked) [Compound 13] has an inhibition at 2 µM ([1]; 48 hours) of 98%, a GI50 [2] of 0.28 µM and a GI50 [3] of 0.28 µM. For the same molecule, the GI50 [4] was 0.24 µM, the GI50 [5] was 1.39 µM and the GI50 [6] was 1.9 µM. The GI50 [7] was 2.08 µM, the GI50 [8] was 1.82 µM and the GI50 [9] was 1.92 µM. For the same molecule, the “Percent inhibition” value ([10]; 5 μM) was 90.9%.

In the case of `CC(C)(NC(=O)c1cc(Cl)cc(Cl)c1)C(=O)C(Cl)Br` (centres unmarked) [Compound 15], the inhibition at 2 µM ([1]; 48 hours) is reported as 90%, the GI50 [2] is reported as 2.85 µM and the GI50 [3] is reported as 1.29 µM. For the same molecule, the GI50 [4] was 6.65 µM, the GI50 [5] was 10.4 µM and the GI50 [6] was 10.8 µM. The GI50 [7] was 16.6 µM, the GI50 [8] was 12.1 µM and the GI50 [9] was 10.8 µM. For the same molecule, the “Percent inhibition” value ([10]; 50 μM) was 94.6%.

In the case of `CC(C)(NC(=O)c1ccccc1)C(=O)C(Br)Br` [Compound 16], the inhibition at 2 µM ([1]; 48 hours) is reported as 98%.

`CCC(C)(NC(=O)c1cc(Cl)c(N)c(C=NOC)c1)C(=O)CCl` (centres unmarked) [Compound 18, 4-amino-3-chloro-5-methoxyiminomethyl-N-(3-chloro-1-ethyl-1-methyl-2-oxopropyl)benzamide] was tested, and the inhibition at 2 µM ([1]; 48 hours) was 94%.

`CCC(C)(NC(=O)c1cccc(C#N)c1)C(=O)CCl` (centres unmarked) [Compound 20] showed an inhibition at 4 µM ([1]; 48 hours) of 96%.

In the case of `CCC(C)(NC(=O)c1cc(Br)c(C)c(Br)c1)C(=O)CCl` (centres unmarked) [Compound 21], the inhibition at 4 µM ([1]; 48 hours) is reported as 97%.

With `CCC(C)(NC(=O)c1cccc(NC(=O)OC)c1)C(=O)CCl` (centres unmarked) [Compound 22] the inhibition at 10 µM ([1]; 10 micromolar, 48 hours) was 96%.

`CCC(C)(NC(=O)c1cccc(C=NOC)c1)C(=O)CCl` (centres unmarked) [Compound 24] was tested, and the inhibition at 10 µM ([1]; 10 micromolar, 48 hours) was 96%.

For `CCC(C)(NC(=O)c1cc(C)cc(Cl)c1)C(=O)CCl` (centres unmarked) [Compound 25], the inhibition at 10 µM ([1]; 10 micromolar, 48 hours) was 95% and the “Percent inhibition” value ([10]; 50 μM) was 30.9%.

In the case of `CC(C)(NC(=O)c1cc(Cl)cc(Cl)c1)C(=O)CN=C=S` [Compound 27], the inhibition at 10 µM ([1]; 48 h) is reported as 61%.

For `CC(C)(NC(=O)c1cc(Cl)cc(Cl)c1)C(=O)CBr` [Compound 29], the inhibition at 10 µM ([1]; 10 micromolar, 48 hours) was 95%.

Molecule `CCC(C)(NC(=O)c1cc(Cl)c(C)c(Br)c1)C(=O)CCl` (centres unmarked) [Compound 30] has an inhibition at 20 µM ([1]; 48 hours) of 97%.

For `CCC(C)(NC(=O)c1cc(Cl)c(F)c(Cl)c1)C(=O)CCl` (centres unmarked) [Compound 31], the inhibition at 20 µM ([1]; 48 hours) was 97%.

Molecule `CCC(C)(NC(=O)c1cc(Cl)c(C)c(Cl)c1)C(=O)CCl` (centres unmarked) [Compound 32] has an inhibition at 20 µM ([1]; 48 hours) of 96%.

For `CCC(C)(NC(=O)c1cc(Cl)c(Cl)c(Cl)c1)C(=O)CCl` (centres unmarked) [Compound 33], the inhibition at 20 µM ([1]; 48 hours) was 94% and the “Percent inhibition” value ([10]; 50 μM) was 12.2%.
